# Test results from paper PMC9841532, “Exploring the Effect of Halogenation in a Series of Potent and Selective A2B Adenosine Receptor Antagonists” (Journal of Medicinal Chemistry, 2022).
# Molecular target: T1, hA1AR (Homo sapiens, UniProt P30542)
# T1 sequence (P30542 1-326): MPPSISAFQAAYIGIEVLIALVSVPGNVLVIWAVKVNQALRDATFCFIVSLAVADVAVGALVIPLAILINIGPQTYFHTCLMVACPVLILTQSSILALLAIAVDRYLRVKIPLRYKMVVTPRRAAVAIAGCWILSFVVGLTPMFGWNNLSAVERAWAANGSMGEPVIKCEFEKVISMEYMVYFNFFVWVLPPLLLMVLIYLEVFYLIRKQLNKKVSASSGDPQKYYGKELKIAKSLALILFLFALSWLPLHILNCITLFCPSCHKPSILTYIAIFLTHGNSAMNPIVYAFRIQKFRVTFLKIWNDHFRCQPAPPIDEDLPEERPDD
# Assay: Radioligand binding competition, [3H]DPCPX, membranes from CHO-A1 cells
# Conditions: 1 μM, [3H]DPCPX, human CHO cells, n = 2
# Method: (§1) All ligands reported in Tables 1–5 were obtained and tested as racemic mixtures. The whole set was evaluated in silico with a combination of a Rdkit[37] PAINS filter and Instant JChem from Chemaxon (https://www.chemaxon.com), to rule out the possibility that these ligands can be promiscuous pan-assay interference compounds (PAINS) and to assess their bioavailability, respectively. […] The stereoisomers of selected compounds were obtained by chiral resolution and tested at the four human AR subtypes in their enantiopure forms (Table 6).
# (§2) A brief description is given below. […] Non-specific binding was determined in the presence of 10 μM R-PIA. The reaction mixture was incubated at 25 °C for 60 min. […] The reaction mixture was incubated at 25 °C for 30 min. […] The reaction mixture was incubated at 25 °C for 30 min. […] Non-specific binding was determined in the presence of 100 μM R-PIA. […] After the incubation time, membranes were washed and filtered and radioactivity was detected in a MicroBeta TriLux reader (PerkinElmer).
row,SMILES,% at 1 μM hA1 (percentage displacement of specific binding)
1,CC1=C(C(=O)OC(C)C)C(c2ccoc2)n2c(nc3cc(F)ccc32)N1 (centres unmarked) [16d],14%
2,CC1=C(C(=O)OC(C)C)C(c2cccs2)n2c(nc3cc(F)ccc32)N1 (centres unmarked) [16f],2%
3,CCOC(=O)C1=C(C)Nc2nc3cc(F)ccc3n2C1c1ccsc1 (centres unmarked) [16g],1%
4,CC1=C(C(=O)OC(C)C)C(c2ccsc2)n2c(nc3cc(F)ccc32)N1 (centres unmarked) [16h],2%
5,CC1=C(C(=O)OC(C)C)C(c2ccsc2)n2c(nc3cc(Cl)ccc32)N1 (centres unmarked) [16p],7%
6,CCOC(=O)C1=C(C)Nc2nc3cc(Br)ccc3n2C1c1ccco1 (centres unmarked) [16q],18%

# The next lines start with the values.
row,% at 1 μM hA1 (percentage displacement of specific binding),SMILES
1,1%,CCOC(=O)C1=C(C)Nc2nc3cc(F)ccc3n2C1c1cccs1 (centres unmarked) [16e]
2,23%,CCOC(=O)C1=C(C)Nc2nc3cc(Cl)ccc3n2C1c1ccco1 (centres unmarked) [16i]
3,31%,CCOC(=O)C1=C(C)Nc2nc3cc(Cl)ccc3n2C1c1ccoc1 (centres unmarked) [16k]
4,3%,CCOC(=O)C1=C(C)Nc2nc3cc(Cl)ccc3n2C1c1cccs1 (centres unmarked) [16m]
5,2%,CC1=C(C(=O)OC(C)C)C(c2cccs2)n2c(nc3cc(Cl)ccc32)N1 (centres unmarked) [16n]
6,2%,CCOC(=O)C1=C(C)Nc2nc3cc(Cl)ccc3n2C1c1ccsc1 (centres unmarked) [16o]

# Molecular target: T2, hA2AAR (Homo sapiens, UniProt P29274)
# T2 construct: expressed in transfected cells; host or cells: HeLa (HeLa-A2A) cell membranes
# T2 sequence (P29274 whole entry): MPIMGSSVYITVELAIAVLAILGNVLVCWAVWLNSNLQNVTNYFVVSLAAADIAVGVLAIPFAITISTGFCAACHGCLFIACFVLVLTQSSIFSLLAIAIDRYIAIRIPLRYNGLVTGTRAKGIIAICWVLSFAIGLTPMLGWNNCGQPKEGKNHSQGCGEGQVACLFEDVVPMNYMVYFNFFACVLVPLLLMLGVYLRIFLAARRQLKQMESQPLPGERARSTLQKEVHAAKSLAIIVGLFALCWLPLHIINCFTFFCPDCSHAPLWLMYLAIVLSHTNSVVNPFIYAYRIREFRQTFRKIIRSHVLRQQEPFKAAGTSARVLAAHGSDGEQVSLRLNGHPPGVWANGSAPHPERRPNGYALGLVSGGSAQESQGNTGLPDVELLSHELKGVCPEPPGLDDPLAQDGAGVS
# Assay: Radioligand binding competition, [3H]ZM241385, membranes from HeLa-A2A cells
# Conditions: 1 μM, [3H]ZM241385, human HeLa cells, n = 2
# Method: as §1, §2
row,SMILES,% at 1 μM hA2A (percentage displacement of specific binding)
1,CC1=C(C(=O)OC(C)C)C(c2ccoc2)n2c(nc3cc(F)ccc32)N1 (centres unmarked) [16d],31%
2,CC1=C(C(=O)OC(C)C)C(c2cccs2)n2c(nc3cc(F)ccc32)N1 (centres unmarked) [16f],1%
3,CCOC(=O)C1=C(C)Nc2nc3cc(F)ccc3n2C1c1ccsc1 (centres unmarked) [16g],1%
4,CC1=C(C(=O)OC(C)C)C(c2ccsc2)n2c(nc3cc(F)ccc32)N1 (centres unmarked) [16h],1%
5,CC1=C(C(=O)OC(C)C)C(c2ccsc2)n2c(nc3cc(Cl)ccc32)N1 (centres unmarked) [16p],7%
6,CCOC(=O)C1=C(C)Nc2nc3cc(Br)ccc3n2C1c1ccco1 (centres unmarked) [16q],29%

# Further lines, results first:
row,% at 1 μM hA2A (percentage displacement of specific binding),SMILES
1,3%,CCOC(=O)C1=C(C)Nc2nc3cc(F)ccc3n2C1c1cccs1 (centres unmarked) [16e]
2,10%,CCOC(=O)C1=C(C)Nc2nc3cc(Cl)ccc3n2C1c1ccco1 (centres unmarked) [16i]
3,43%,CCOC(=O)C1=C(C)Nc2nc3cc(Cl)ccc3n2C1c1ccoc1 (centres unmarked) [16k]
4,2%,CCOC(=O)C1=C(C)Nc2nc3cc(Cl)ccc3n2C1c1cccs1 (centres unmarked) [16m]
5,2%,CC1=C(C(=O)OC(C)C)C(c2cccs2)n2c(nc3cc(Cl)ccc32)N1 (centres unmarked) [16n]
6,7%,CCOC(=O)C1=C(C)Nc2nc3cc(Cl)ccc3n2C1c1ccsc1 (centres unmarked) [16o]

# Molecular target: T3, hA3AR (Homo sapiens, UniProt P0DMS8)
# T3 construct: expressed in transfected cells; host or cells: HeLa (HeLa-A3) cell membranes
# T3 sequence (P0DMS8 1-318): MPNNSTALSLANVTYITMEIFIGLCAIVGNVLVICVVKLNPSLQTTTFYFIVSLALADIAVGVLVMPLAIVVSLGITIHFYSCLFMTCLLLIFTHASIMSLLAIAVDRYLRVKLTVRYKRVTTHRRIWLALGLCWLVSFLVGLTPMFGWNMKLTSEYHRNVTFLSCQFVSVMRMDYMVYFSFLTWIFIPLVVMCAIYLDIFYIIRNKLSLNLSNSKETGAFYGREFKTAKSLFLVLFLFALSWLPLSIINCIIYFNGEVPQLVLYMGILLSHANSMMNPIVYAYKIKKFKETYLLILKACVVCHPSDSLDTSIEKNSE
# Assay: Radioligand binding competition, [3H]NECA, membranes from HeLa-A3 cells
# Conditions: 1 μM, [3H]NECA, human HeLa cells, n = 2
# Method: as §1, §2
row,SMILES,% at 1 μM hA3 (percentage displacement of specific binding)
1,CC1=C(C(=O)OC(C)C)C(c2ccoc2)n2c(nc3cc(F)ccc32)N1 (centres unmarked) [16d],4%
2,CC1=C(C(=O)OC(C)C)C(c2cccs2)n2c(nc3cc(F)ccc32)N1 (centres unmarked) [16f],7%
3,CCOC(=O)C1=C(C)Nc2nc3cc(F)ccc3n2C1c1ccsc1 (centres unmarked) [16g],3%
4,CC1=C(C(=O)OC(C)C)C(c2ccsc2)n2c(nc3cc(F)ccc32)N1 (centres unmarked) [16h],5%
5,CC1=C(C(=O)OC(C)C)C(c2ccsc2)n2c(nc3cc(Cl)ccc32)N1 (centres unmarked) [16p],4%
6,CCOC(=O)C1=C(C)Nc2nc3cc(Br)ccc3n2C1c1ccco1 (centres unmarked) [16q],33%

# Now from value to molecule:
row,% at 1 μM hA3 (percentage displacement of specific binding),SMILES
1,3%,CCOC(=O)C1=C(C)Nc2nc3cc(F)ccc3n2C1c1cccs1 (centres unmarked) [16e]
2,4%,CCOC(=O)C1=C(C)Nc2nc3cc(Cl)ccc3n2C1c1ccco1 (centres unmarked) [16i]
3,4%,CCOC(=O)C1=C(C)Nc2nc3cc(Cl)ccc3n2C1c1ccoc1 (centres unmarked) [16k]
4,1%,CCOC(=O)C1=C(C)Nc2nc3cc(Cl)ccc3n2C1c1cccs1 (centres unmarked) [16m]
5,1%,CC1=C(C(=O)OC(C)C)C(c2cccs2)n2c(nc3cc(Cl)ccc32)N1 (centres unmarked) [16n]
6,8%,CCOC(=O)C1=C(C)Nc2nc3cc(Cl)ccc3n2C1c1ccsc1 (centres unmarked) [16o]

# Molecular target: T4, hA2BAR (Homo sapiens, UniProt P29275)
# T4 construct: host or cells: HEK-293 (HEK-293-A2B) cell membranes
# T4 sequence (P29275 1-332): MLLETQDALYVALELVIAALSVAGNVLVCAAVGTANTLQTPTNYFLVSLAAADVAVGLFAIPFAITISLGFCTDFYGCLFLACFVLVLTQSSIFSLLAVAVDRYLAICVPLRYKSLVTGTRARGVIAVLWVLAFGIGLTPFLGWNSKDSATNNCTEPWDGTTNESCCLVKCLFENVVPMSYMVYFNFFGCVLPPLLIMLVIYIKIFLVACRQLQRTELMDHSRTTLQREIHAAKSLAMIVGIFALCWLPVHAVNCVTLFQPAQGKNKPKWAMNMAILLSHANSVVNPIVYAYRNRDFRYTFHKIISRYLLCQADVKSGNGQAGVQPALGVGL
# Assay: Radioligand binding competition, [3H]DPCPX, membranes from HEK-293-A2B cells
# Parameters: Exp. dG: unit not given here
# Conditions: 1 μM, [3H]DPCPX, human HEK-293 cells, n = 2
# Method: as §1, §2
row,% at 1 μM hA2B (percentage displacement of specific binding),SMILES
1,41%,CCOC(=O)C1=C(C)Nc2nc3cc(Cl)ccc3n2C1c1cccs1 (centres unmarked) [16m]

# Same assay, conditions: displacement of specific [3H]DPCPX binding in human HEK-293 cells, n = 3; read-out: Ki hA2B
row,SMILES,Ki
1,CC1=C(C(=O)OC(C)C)C(c2ccoc2)n2c(nc3cc(F)ccc32)N1 (centres unmarked) [16d],8.6 ± 0.5 nM
2,CC1=C(C(=O)OC(C)C)C(c2cccs2)n2c(nc3cc(F)ccc32)N1 (centres unmarked) [16f],668 ± 6 nM
3,CCOC(=O)C1=C(C)Nc2nc3cc(F)ccc3n2C1c1ccsc1 (centres unmarked) [16g],187 ± 2 nM
4,CC1=C(C(=O)OC(C)C)C(c2ccsc2)n2c(nc3cc(F)ccc32)N1 (centres unmarked) [16h],75.5 ± 3.2 nM
5,CC1=C(C(=O)OC(C)C)C(c2ccsc2)n2c(nc3cc(Cl)ccc32)N1 (centres unmarked) [16p],165 ± 9 nM
6,CCOC(=O)C1=C(C)Nc2nc3cc(Br)ccc3n2C1c1ccco1 (centres unmarked) [16q],26.9 ± 0.8 nM

# Results, then the molecule that gave them:
row,Ki,SMILES
1,724 ± 8 nM,CCOC(=O)C1=C(C)Nc2nc3cc(F)ccc3n2C1c1cccs1 (centres unmarked) [16e]
2,8.42 ± 1.4 nM,CCOC(=O)C1=C(C)Nc2nc3cc(Cl)ccc3n2C1c1ccco1 (centres unmarked) [16i]
3,7.21 ± 0.4 nM,CCOC(=O)C1=C(C)Nc2nc3cc(Cl)ccc3n2C1c1ccoc1 (centres unmarked) [16k]
4,837 ± 11 nM,CC1=C(C(=O)OC(C)C)C(c2cccs2)n2c(nc3cc(Cl)ccc32)N1 (centres unmarked) [16n]
5,911 ± 14 nM,CCOC(=O)C1=C(C)Nc2nc3cc(Cl)ccc3n2C1c1ccsc1 (centres unmarked) [16o]

# Same assay, conditions: experimental binding free energy, Supplementary Table S3; unit not given (errors in kcal/mol)
row,SMILES,Exp. dG
1,CC1=C(C(=O)OC(C)C)C(c2ccoc2)n2c(nc3cc(F)ccc32)N1 (centres unmarked) [16d],-11
2,CC1=C(C(=O)OC(C)C)C(c2cccs2)n2c(nc3cc(F)ccc32)N1 (centres unmarked) [16f],-8.419
3,CCOC(=O)C1=C(C)Nc2nc3cc(F)ccc3n2C1c1ccsc1 (centres unmarked) [16g],-9.172
4,CC1=C(C(=O)OC(C)C)C(c2ccsc2)n2c(nc3cc(F)ccc32)N1 (centres unmarked) [16h],-9.71

# Other lines, results leading:
row,Exp. dG,SMILES
1,-11.01,CCOC(=O)C1=C(C)Nc2nc3cc(Cl)ccc3n2C1c1ccco1 (centres unmarked) [16i]
2,-11.1,CCOC(=O)C1=C(C)Nc2nc3cc(Cl)ccc3n2C1c1ccoc1 (centres unmarked) [16k]
3,-8.286,CC1=C(C(=O)OC(C)C)C(c2cccs2)n2c(nc3cc(Cl)ccc32)N1 (centres unmarked) [16n]
4,-8.235,CCOC(=O)C1=C(C)Nc2nc3cc(Cl)ccc3n2C1c1ccsc1 (centres unmarked) [16o]

# Same assay, conditions: read-out: Ki hA2B
row,Ki,SMILES
1,< 10 nM,CC1=C(C(=O)OC(C)C)C(c2ccoc2)n2c(nc3cc(F)ccc32)N1 (centres unmarked) [16d]
2,< 10 nM,CCOC(=O)C1=C(C)Nc2nc3cc(Cl)ccc3n2C1c1ccco1 (centres unmarked) [16i]
3,< 10 nM,CCOC(=O)C1=C(C)Nc2nc3cc(Cl)ccc3n2C1c1ccoc1 (centres unmarked) [16k]
